Assay results from patent US9776991B2, “Thienomethylpiperazine derivatives as inhibitors of soluble epoxide hydrolase” (SANOFI, priority 2013, dated 2017).
Where a name gives a salt, the structure may show the parent alone.

Molecular target: recombinant sEH (soluble epoxide hydrolase, EPHX2) (Homo sapiens (Human), UniProt P34913)
Test: biochemical fluorometric sEH inhibition assay with Phome substrate
Details: recombinant sEH purified from Sf9 insect cells, 2 nM sEH, 5 μM Phome, 60 minutes at 30° C.
Method: Compounds were tested in a biochemical screening assay using recombinant sEH purified from Sf9 insect cells and an artificial substrate, (3-phenyl-oxiranyl)-acetic acid cyano-(6-methoxy-naphtalen-2-yl)-methyl ester, Phome. The biochemical assay was performed in analogy to a fluorometric described in the literature (P. D. Jones et al., Anal. Biochem. 2005, 343, 66-75). The assay principle bases on the sEH-catalyzed hydrolysis of an artificial α-cyano-ester substrate. O-deacetylation liberates a cyanohydrin intermediate that rapidly decomposes to the highly fluorescent 6-methoxy-2-naphtaldehyde. To discriminate sample autofluorescence, the assay was carried out as a kinetic measurement with two time points. The first measurement is performed immediately before addition of the substrate and the […] measurement is done after completion of the assay. The assay format is either in 96- or in 384-well format.
Details of the assay using a 96-well plate format are described below. 40 μl recombinant sEH enzyme and 5 μl test compound are pre-incubated for 15 minutes at 30° C. Following pre-incubation, the reaction is started by addition of 5 μl Phome. The assay mixture containing 2 nM final sEH concentration, test compound ranging in a concentration from 0.0001-10 μM and 5 μM Phome is incubated for 60 minutes at 30° C.
Fluorescence is measured with any suitable detector for instance a TECAN Safire or Tecan Ultra at […]. % inhibition of recombinant sEH activity is used for calculation of corresponding IC50 values as illustrated and described in the examples.
The NCBI gene bank reference sequence with the accession number NM_001979 for EPHX2/sEH was applied for recombinant protein production:
The following commercially available materials have been used: • Incubation reagent: 25 mM Hepes (Sigma-Aldrich, Cat. No H-3375), 0.01% bovine albumin (Sigma-Aldrich Cat. No PA9205) • Substrate: 3-Phenyl-oxiranyl)-acetic acid cyano-(6-methoxy-naphtalen-2-yl)-methyl ester, Phome (Biozol Cat. No 10003134) • Microtiter plates: 96-well plates (Greiner Cat. No 655180; Costar Cat. No 3915)

Sequence of recombinant sEH (soluble epoxide hydrolase, EPHX2) (P34913 whole entry): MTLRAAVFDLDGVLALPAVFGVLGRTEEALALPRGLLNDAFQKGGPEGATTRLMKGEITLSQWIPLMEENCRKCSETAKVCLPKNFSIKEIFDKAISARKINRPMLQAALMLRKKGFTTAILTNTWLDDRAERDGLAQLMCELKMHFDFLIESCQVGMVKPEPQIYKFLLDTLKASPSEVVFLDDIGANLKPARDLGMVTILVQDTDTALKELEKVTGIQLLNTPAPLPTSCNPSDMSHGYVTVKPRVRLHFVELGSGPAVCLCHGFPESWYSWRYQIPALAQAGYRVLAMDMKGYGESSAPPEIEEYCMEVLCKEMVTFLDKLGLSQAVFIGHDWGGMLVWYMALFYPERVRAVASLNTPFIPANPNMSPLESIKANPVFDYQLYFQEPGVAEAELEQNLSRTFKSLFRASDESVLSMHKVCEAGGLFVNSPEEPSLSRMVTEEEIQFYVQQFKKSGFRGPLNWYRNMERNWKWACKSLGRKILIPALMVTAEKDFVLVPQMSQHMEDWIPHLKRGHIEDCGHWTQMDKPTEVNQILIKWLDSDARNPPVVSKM

| IC50 | SMILES |
| --- | --- |
| 1.01 nM | COc1ccc(CNC(=O)c2ccc(CN3CCN(CC(F)(F)F)C(=O)C3)s2)c(OC(F)(F)F)c1 [Example 56] |
| 1.13 nM | COc1ncccc1C(=O)N1CCN(Cc2ccc(C(=O)NCc3ccccc3C(F)(F)F)s2)CC1 [Example 57] |
| 1.17 nM | O=C(NCc1ccc(Cl)cc1Cl)c1ccc(CN2CCN(C(=O)C3(c4ccccc4)CC3)CC2)s1 [Example 58] |
| 1.15 nM | Cc1cc(=O)oc(C)c1C(=O)N1CCN(Cc2ccc(C(=O)NCc3ccc(Cl)cc3Cl)s2)CC1 [Example 59] |
| 1.1 nM | Cc1cc(=O)oc(C)c1C(=O)N1CCN(Cc2ccc(C(=O)NCc3ccc(Cl)cc3F)s2)CC1 [Example 60, 5-[4-(2,4-Dimethyl-6-oxo-6H-pyran-3-carbonyl)-piperazin-1-ylmethyl]-thiophene-2-carboxylic acid 4-chloro-2-fluoro-benzylamide] |
| 1.18 nM | CC(O)C(=O)N1CCN(Cc2ccc(C(=O)NCc3ccc(C#N)cc3Cl)s2)CC1 (stereo not drawn) [Example 61] |
| 1.14 nM | CC1(C)C(=O)NCCN1Cc1ccc(C(=O)NCc2ccccc2OC(F)(F)F)s1 [Example 62] |
| 1.21 nM | CC(C(=O)N1CCN(Cc2ccc(C(=O)NCc3ccc(Cl)cc3Cl)s2)CC1)c1ccccc1 (stereo not drawn) [Example 63] |
| 1.25 nM | O=C(NCc1ccccc1C(F)(F)F)c1ccc(CN2CCN(C(=O)c3ccc(F)cc3Cl)CC2)s1 [Example 64] |
| 1.19 nM | O=C(NCc1ccc(Cl)cc1Cl)c1ccc(CN2CCN(C(=O)c3nccc4ccccc34)CC2)s1 [Example 65] |
| 1.25 nM | O=C(NCc1ccccc1OC(F)(F)F)c1ccc(CN2CCN(C(=O)c3ccc[nH]c3=O)CC2)s1 [Example 66] |
| 1.21 nM | COc1ccc(OC)c(C(=O)N2CCN(Cc3ccc(C(=O)NCc4ccccc4OC(F)(F)F)s3)CC2)n1 [Example 67] |
| 1.19 nM | COCC1(C(=O)N2CCN(Cc3ccc(C(=O)NCc4ccccc4OC(F)(F)F)s3)CC2)CC1 [Example 68] |
| 2.62 nM | O=C(NCc1ccc(Cl)cc1Cl)c1ccc(CN2CCN(C(=O)C3Cc4ccccc43)CC2)s1 (stereo not drawn) [Example 70] |
| 2.59 nM | Cc1cccc(C(=O)N2CCN(Cc3ccc(C(=O)NCc4ccccc4OC(F)(F)F)s3)CC2)n1 [Example 72] |
| 2.59 nM | O=C(NCc1ccccc1OC(F)(F)F)c1ccc(CN2CCN(c3cnccn3)CC2)s1 [Example 73] |
| 2.66 nM | CNC(=O)c1cccnc1N1CCN(Cc2ccc(C(=O)NCc3ccc(OC)cc3OC(F)(F)F)s2)CC1 [Example 74] |
| 2.55 nM | O=C(NCc1ccccc1C(F)(F)F)c1ccc(CN2CCN(C(=O)C3(c4ccccc4)CC3)CC2)s1 [Example 75] |
| 2.53 nM | O=C(NCc1ccccc1C(F)(F)F)c1ccc(CN2CCN(C(=O)[C@@H]3C[C@H]3c3ccccc3)CC2)s1 [Example 76] |
| 2.49 nM | O=C(NCc1ccc(Cl)cc1Cl)c1ccc(CN2CCN(C(=O)c3ccccn3)CC2)s1 [Example 77] |
| 2.54 nM | CCCn1nccc1CNC(=O)c1ccc(CN2CCN(C(=O)c3c(C)cc(=O)oc3C)CC2)s1 [Example 78] |

| IC50 | SMILES |
| --- | --- |
| 2.54 nM | Cc1ccc(O)c(C(=O)N2CCN(Cc3ccc(C(=O)NCc4ccccc4OC(F)(F)F)s3)CC2)n1 [Example 79] |
| 2.53 nM | Cc1cc(=O)oc(C)c1C(=O)N1CCN(Cc2ccc(C(=O)NCc3ccc(C#N)cc3Cl)s2)CC1 [Example 80] |
| 2.36 nM | O=C(NCc1ccccc1C(F)(F)F)c1ccc(CN2CCN(C(=O)c3c(Cl)cccc3Cl)CC2)s1 [Example 81] |
| 2.37 nM | O=C(NCc1ccccc1OC(F)(F)F)c1ccc(CN2CCN(C(=O)c3ncccc3O)CC2)s1 [Example 82] |
| 2.37 nM | COCCOCC(=O)N1CCN(Cc2ccc(C(=O)NCc3ccccc3OC(F)(F)F)s2)CC1 [Example 83] |
| 2.35 nM | O=C(NCc1ccc(Cl)cc1Cl)c1ccc(CN2CCN(C3CCCC3)C(=O)C2)s1 [Example 84] |
| 2.44 nM | O=C(NCc1ccccc1OC(F)(F)F)c1ccc(CN2CCN(C3CCS(=O)(=O)C3)CC2)s1 (stereo not drawn) [Example 85] |
| 2.38 nM | CC1(C)CC[C@@H](C(=O)N2CCN(Cc3ccc(C(=O)NCc4ccccc4OC(F)(F)F)s3)CC2)N1 [Example 86] |
| 2.41 nM | O=C(NCc1ccccc1OC(F)(F)F)c1ccc(CN2CCN(c3ccc(CO)cn3)CC2)s1 [Example 87] |
| 1.44 nM | Cc1noc(C)c1C(=O)N1CCN(Cc2ccc(C(=O)NCc3ccccc3C(F)(F)F)s2)CC1 [Example 88] |
| 1.4 nM | O=C(NCc1ccc(Cl)cc1Cl)c1ccc(CN2CCN(C(=O)c3cccnc3)CC2)s1 [Example 89] |
| 1.43 nM | CCc1oncc1C(=O)N1CCN(Cc2ccc(C(=O)NCc3ccc(Cl)cc3Cl)s2)CC1 [Example 90] |
| 1.42 nM | Cc1cc(=O)oc(C)c1C(=O)N1CCN(Cc2ccc(C(=O)NCc3cccc(Cl)c3Cl)s2)CC1 [Example 91] |
| 1.39 nM | CC(O)CC(=O)N1CCN(Cc2ccc(C(=O)NCc3ccccc3OC(F)(F)F)s2)CC1 (stereo not drawn) [Example 92] |
| 1.31 nM | CO[C@H](C)C(=O)N1CCN(Cc2ccc(C(=O)NCc3ccccc3OC(F)(F)F)s2)CC1 [Example 93] |
| 1.5 nM | O=C(NCc1ccccc1OC(F)(F)F)c1ccc(CN2CCN(C(=O)[C@@H]3CCC[C@@H]3O)CC2)s1 [Example 94] |
| 1.51 nM | CCC(C)(O)C(=O)N1CCN(Cc2ccc(C(=O)NCc3ccccc3OC(F)(F)F)s2)CC1 (stereo not drawn) [Example 95] |
| 1.57 nM | CC[C@@H](O)C(=O)N1CCN(Cc2ccc(C(=O)NCc3ccccc3OC(F)(F)F)s2)CC1 [Example 96] |
| 1.6 nM | COc1cccnc1C(=O)N1CCN(Cc2ccc(C(=O)NCc3ccccc3OC(F)(F)F)s2)CC1 [Example 97] |
| 1.52 nM | CC(C(=O)N1CCN(Cc2ccc(C(=O)NCc3ccccc3C(F)(F)F)s2)CC1)c1ccccc1 (stereo not drawn) [Example 98] |
| 1.53 nM | CCn1nc(C)c(Br)c1C(=O)N1CCN(Cc2ccc(C(=O)NCCC(C)C)s2)CC1 [Example 99] |

| IC50 | SMILES |
| --- | --- |
| 2.28 nM | CC(C)[C@@H](O)C(=O)N1CCN(Cc2ccc(C(=O)NCc3ccccc3OC(F)(F)F)s2)CC1 [Example 101] |
| 2.33 nM | O=C1CCC(C(=O)N2CCN(Cc3ccc(C(=O)NCc4ccccc4OC(F)(F)F)s3)CC2)N1 (stereo not drawn) [Example 102] |
| 2.32 nM | CC1(C)SCN[C@H]1C(=O)N1CCN(Cc2ccc(C(=O)NCc3ccc(Cl)cc3Cl)s2)CC1 [Example 103] |
| 2.33 nM | COc1ccc(CNC(=O)c2ccc(CN3CCn4cnnc4C3)s2)c(OC(F)(F)F)c1 [Example 104] |
| 2.33 nM | Cc1cccnc1N1CCN(Cc2ccc(C(=O)NCc3ccc(Cl)cc3Cl)s2)CC1=O [Example 105] |
| 2.18 nM | O=C(NCc1ccccc1OC(F)(F)F)c1ccc(CN2CCN(C(=O)CCO)CC2)s1 [Example 106] |
| 2.26 nM | O=C(NCc1ccccc1OC(F)(F)F)c1ccc(CN2CCN(C(=O)c3c[nH]cnc3=O)CC2)s1 [Example 107] |
| 2.15 nM | Cn1ncc(N2CCN(Cc3ccc(C(=O)NCc4ccc(Cl)cc4Cl)s3)CC2)cc1=O [Example 108] |
| 2.16 nM | NC1(C(=O)N2CCN(Cc3ccc(C(=O)NCc4ccc(Cl)cc4Cl)s3)CC2)CC1 [Example 109] |
| 2.16 nM | CC1(C)SCN[C@H]1C(=O)N1CCN(Cc2ccc(C(=O)NCc3ccccc3OC(F)(F)F)s2)CC1 [Example 110] |
| 2.23 nM | O=C(NCc1ccccc1OC(F)(F)F)c1ccc(CN2CCN(CC(F)(F)F)C(=O)C2)s1 [Example 111] |
| 1.64 nM | Cc1cccnc1N1CCN(Cc2ccc(C(=O)NCc3ccccc3OC(F)(F)F)s2)CC1=O [Example 112] |
| 1.67 nM | COc1ccc(CNC(=O)c2ccc(CN3CCN(c4nccn4C)CC3)s2)c(OC(F)(F)F)c1 [Example 113] |
| 1.67 nM | O=C(NCc1ccc(Cl)cc1Cl)c1ccc(CN2CCN3C(=O)CCC3C2)s1 (stereo not drawn) [Example 114] |
| 1.64 nM | NC1(C(=O)N2CCN(Cc3ccc(C(=O)NCc4ccccc4OC(F)(F)F)s3)CC2)CC1 [Example 115, 5-[4-(1-Amino-cyclopropanecarbonyl)-piperazin-1-ylmethyl]-thiophene-2-carboxylic acid 2-trifluoromethoxy-benzylamide, trifluoroacetate] |
| 1.6 nM | COCCC(=O)N1CCN(Cc2ccc(C(=O)NCc3ccccc3OC(F)(F)F)s2)CC1 [Example 116] |
| 1.64 nM | CCc1oncc1C(=O)N1CCN(Cc2ccc(C(=O)NCc3ccccc3C(F)(F)F)s2)CC1 [Example 117] |
| 1.72 nM | CCOc1ccccc1C(=O)N1CCN(Cc2ccc(C(=O)NCCC(C)C)s2)CC1 [Example 118] |
| 1.68 nM | O=C(NCc1ccccc1C(F)(F)F)c1ccc(CN2CCN(C(=O)c3ccccc3F)CC2)s1 [Example 119] |

| SMILES | IC50 |
| --- | --- |
| O=C(NCc1ccc(Cl)cc1Cl)c1ccc(CN2CCN(C(=O)Cc3ccccc3Cl)CC2)s1 [Example 69] | 2.61 nM |
| O=C(NCc1ccc(Cl)cc1Cl)c1ccc(CN2CCN(C(=O)Cc3cccc(C(F)(F)F)c3)CC2)s1 [Example 100] | 2.3 nM |
